ChEMBL document CHEMBL1121481, “Synthetic immunostimulants derived from the bacterial cell wall” (J Med Chem, 1980)

How the values were obtained:
[1] = test system: Mus musculus; assay: Compound was tested for antibody titer in mice after injection with antigen in saline; compound is pyrogenic at 1 mg/kg; assay type: functional, organism-based; parameters: dose 1 mg/kg
[2] = test system: Mus musculus; assay: Compound was tested for protective activity in mice infected with Klebsiella pneumoniae; compound is non pyrogenic at 1 mg/kg; assay type: functional, organism-based; parameters: dose 1 mg/kg
[3] = test system: Cavia porcellus; assay: Compound was tested for delayed hypersensitivity in guinea pig after administration in a water in oil emulsion; compound is pyrogenic at 1 mg/kg; assay type: functional, organism-based; parameters: dose 1 mg/kg
[4] = test system: Mus musculus; assay: Compound was tested for [3H]- -thymidine uptake in mouse spleen cell cultures; compound is pyrogenic at 1 mg/kg; assay type: functional, organism-based; parameters: dose 1 mg/kg
[5] = organism: Oryctolagus cuniculus; assay: Compound was tested for pyrogenicity in the rabbit; pyrogenic at 100 ug/mL.; assay type: functional, organism-based
[6] = test system: Limulus; assay: Compound was evaluated by Limulus amoebocyte lysate test; negative at 100 ug/mL; assay type: functional, organism-based
[7] = test system: Mus musculus; assay: Compound was tested for antibody titer in mice after injection with antigen in saline;compound is pyrogenic at 1 mg/kg; assay type: functional, organism-based; parameters: dose 1 mg/kg
[8] = organism: Oryctolagus cuniculus; assay: Compound was tested for pyrogenicity in the rabbit; non pyrogenic at […]; assay type: functional, organism-based
[9] = test system: Mus musculus; assay: Compound was tested for protective activity in mice infected with Klebsiella pneumoniae; compound is pyrogenic at 1 mg/kg; assay type: functional, organism-based; parameters: dose 1 mg/kg
[10] = test system: Cavia porcellus; assay: Compound was tested for delayed hypersensitivity in guinea pig after administration in a water in oil emulsion; non pyrogenic at 1 mg/kg; assay type: functional, organism-based; parameters: dose 1 mg/kg
[11] = test system: Limulus; assay: Compound was evaluated by Limulus amoebocyte lysate test; positive at 10 ug/mL; assay type: functional, organism-based
[12] = test system: Limulus; assay: Compound was evaluated by Limulus amoebocyte lysate test; positive at 100 ug/mL; assay type: functional
[13] = test system: Cavia porcellus; assay: Compound was tested for delayed hypersensitivity in guinea pig after administration in a water in oil emulsion; compound is non pyrogenic at 1 mg/kg; assay type: functional, organism-based; parameters: dose 1 mg/kg
[14] = test system: Oryctolagus cuniculus; assay: Compound was tested for pyrogenicity in the rabbit; non pyrogenic at 1 mg/kg; assay type: functional, organism-based; parameters: dose 1 mg/kg
[15] = organism: Oryctolagus cuniculus; assay: Compound was tested for pyrogenicity in the rabbit; Delayed hypersensitivity; assay type: functional, organism-based
[16] = test system: Mus musculus; assay: Compound was tested for protective activity in mice infected with Klebsiella pneumoniae; non pyrogenic at 1 mg/kg; assay type: functional, organism-based; parameters: dose 1 mg/kg
[17] = test system: Limulus; assay: Compound was evaluated by Limulus amoebocyte lysate test; Positive at 100 ug/mL; assay type: functional, organism-based
[18] = test system: Mus musculus; assay: Compound was tested for [3H]thymidine uptake in mouse spleen cell cultures; compound is pyrogenic at 1 mg/kg; assay type: functional, organism-based; parameters: dose 1 mg/kg

SMILES | Adjuvant effect [1] | Adjuvant effect [3] | Mitogenic effect [4] | Pyrogenic effect [5] | LAL test [6] | Anti-infectious effect [9] | LAL test [12] | Pyrogenic effect [15] | also measured
CC(=O)N[C@H]1[C@@H](O[C@@H](C)C(=O)N[C@@H](C)C(=O)N[C@H](CCC(=O)N[C@@H](CCCCN)C(=O)N[C@H](C)C(=O)O)C(N)=O)[C@H](O)[C@H](CO)O[C@H]1O | pyrogenic at 1 mg/kg | pyrogenic at 1 mg/kg | pyrogenic at 1 mg/kg | pyrogenic at 100 ug/mL | Not toxic | – | – | – | Anti-infectious effect [2]: Not toxic
CC(=O)N[C@H]1C(OC(C)C(=O)NC(C)C(=O)NC(CCC(N)=O)C(=O)O)[C@H](O)C(CO)O[C@H]1O (stereo partly specified) | – | – | pyrogenic at 1 mg/kg | – | – | pyrogenic at 1 mg/kg | – | – | Adjuvant effect [7]: pyrogenic at 1 mg/kg; Pyrogenic effect [8]: Not toxic; Adjuvant effect [10]: Not toxic; LAL test [11]: positive at 10 ug/mL
CC(=O)N[C@H]1C(O)O[C@H](CO)[C@@H](O)[C@@H]1O[C@H](C)C(=O)N[C@@H](C)C(=O)N[C@H](CCC(=O)O)C(N)=O (stereo partly specified) | pyrogenic at 1 mg/kg | pyrogenic at 1 mg/kg | pyrogenic at 1 mg/kg | pyrogenic at 100 ug/mL | – | pyrogenic at 1 mg/kg | positive at 100 ug/mL | – | –
CC(=O)N[C@H]1C(OC(C)C(=O)NC(C)C(=O)NC(CCC(=O)O)C(=O)O)[C@H](O)C(CO)O[C@H]1O (stereo partly specified) | pyrogenic at 1 mg/kg | – | pyrogenic at 1 mg/kg | – | negative at 100 ug/mL | pyrogenic at 1 mg/kg | – | – | Adjuvant effect [13]: Not toxic; Pyrogenic effect [14]: Not toxic
COC(=O)C(CCC(N)=O)NC(=O)C(C)NC(=O)C(C)OC1[C@H](O)C(CO)O[C@@H](O)[C@H]1NC(C)=O (stereo partly specified) | pyrogenic at 1 mg/kg | pyrogenic at 1 mg/kg | pyrogenic at 1 mg/kg | – | – | – | positive at 100 ug/mL | Not toxic | Anti-infectious effect [16]: Not toxic
COC(=O)CCC(NC(=O)C(C)NC(=O)C(C)OC1[C@H](O)C(CO)O[C@@H](O)[C@H]1NC(C)=O)C(=O)OC (stereo partly specified) | pyrogenic at 1 mg/kg | pyrogenic at 1 mg/kg | – | – | – | pyrogenic at 1 mg/kg | – | Not toxic | LAL test [17]: Positive at 100 ug/mL; Mitogenic effect [18]: pyrogenic at 1 mg/kg
